# Read-outs that look alike come from different tables or passages of the source.
# Key:
# [1] = target: T1, Human 5-HT1B (Homo sapiens, UniProt P28222); test: biochemical; design: CEREP off-target binding panel, per cent inhibition at 10 uM, n = 2
# T1 construct: gene HTR1B
# [2] = target: T2, Human 5-HT5A (Homo sapiens, UniProt P47898); test: biochemical; design: CEREP off-target binding panel, per cent inhibition at 10 uM, n = 2
# T2 construct: gene HTR5A
# [3] = target: T3, Human A1 (Homo sapiens, UniProt P30542); test: biochemical; design: CEREP off-target binding panel, per cent inhibition at 10 uM, n = 2
# T3 construct: gene ADORA1
# [4] = target: T4, Human A3 (Homo sapiens, UniProt P0DMS8); test: biochemical; design: CEREP off-target binding panel, per cent inhibition at 10 uM, n = 2
# T4 construct: gene ADORA3
# [5] = target: T5, Human D1 (Homo sapiens, UniProt P21728); test: biochemical; design: CEREP off-target binding panel, per cent inhibition at 10 uM, n = 2
# T5 construct: gene DRD1
# [6] = target: T6, Human H3 (Homo sapiens, UniProt Q9Y5N1); test: biochemical; design: CEREP off-target binding panel, per cent inhibition at 10 uM, n = 2
# T6 construct: gene HRH3
# [7] = target: T7, Human KOP (Homo sapiens, UniProt P41145); test: biochemical; design: CEREP off-target binding panel, per cent inhibition at 10 uM, n = 2
# T7 construct: gene OPRK1
# [8] = target: T8, Human M1 (Homo sapiens, UniProt P11229); test: biochemical; design: CEREP off-target binding panel, per cent inhibition at 10 uM, n = 2
# T8 construct: gene CHRM1
# [9] = target: T9, Human NK2 (Homo sapiens, UniProt P21452); test: biochemical; design: CEREP off-target binding panel, per cent inhibition at 10 uM, n = 2
# T9 construct: gene TACR2
# [10] = target: T10, Human NK3 (Homo sapiens, UniProt P29371); test: biochemical; design: CEREP off-target binding panel, per cent inhibition at 10 uM, n = 2
# T10 construct: gene TACR3
# [11] = target: T11, Human PXR (Homo sapiens, UniProt O75469); test: in vitro; design: CEREP off-target binding panel, per cent inhibition at 10 uM, n = 2
# T11 construct: gene NR1I2
# [12] = target: T12, Human V1a (Homo sapiens, UniProt P37288); test: biochemical; design: CEREP off-target binding panel, per cent inhibition at 10 uM, n = 2
# T12 construct: gene AVPR1A
# [13] = target: T13, Human Y1 (Homo sapiens, UniProt P25929); test: biochemical; design: CEREP off-target binding panel, per cent inhibition at 10 uM, n = 2
# T13 construct: gene NPY1R
# [14] = target: T14, Human Y2 (Homo sapiens, UniProt P49146); test: biochemical; design: CEREP off-target binding panel, per cent inhibition at 10 uM, n = 2
# T14 construct: gene NPY2R
# [15] = target: T15, Human β2 (Homo sapiens, UniProt P07550); test: biochemical; design: CEREP off-target binding panel, per cent inhibition at 10 uM, n = 2
# T15 construct: gene ADRB2
# [16] = target: T16, Human 5-HT transporter (Homo sapiens, UniProt P31645); test: biochemical; design: CEREP off-target binding panel, per cent inhibition at 10 uM, n = 2
# T16 construct: gene SLC6A4
# [17] = target: T17, Human norepinephrine transporter (Homo sapiens, UniProt P23975); test: biochemical; design: CEREP off-target binding panel, per cent inhibition at 10 uM, n = 2
# T17 construct: gene SLC6A2
# [18] = target: T18, Human B2 (Homo sapiens, UniProt P30411); test: biochemical; design: CEREP off-target binding panel, per cent inhibition at 10 uM, n = 2
# T18 construct: gene BDKRB2
# [19] = target: T19, Human dopamine transporter (Homo sapiens, UniProt Q01959); test: biochemical; design: CEREP off-target binding panel, per cent inhibition at 10 uM, n = 2
# T19 construct: gene SLC6A3
# [20] = target: CYP1A2 (Homo sapiens, UniProt P05177); test: biochemical; design: CYP off-target inhibition panel
# [21] = target: CYP2B6 (Homo sapiens, UniProt P20813); test: biochemical; design: CYP off-target inhibition panel
# Text: These examples have been of interest as tool compounds in commercial development (indicated by patent numbers in Figure 3). […] Initially, [compound left out] was utilized as substrate in this reaction owing to its improved solubility over cholesterol, enabling better run to run reproducibility ([Mast et al., 2003]).
# [22] = target: CYP2C9 (Homo sapiens, UniProt P11712); test: biochemical; design: CYP off-target inhibition panel
# [23] = target: CYP2C19 (Homo sapiens, UniProt P33261); test: biochemical; design: CYP off-target inhibition panel
# [24] = target: T20, CCK1 (Homo sapiens, UniProt P32238); test: biochemical; design: CEREP radioligand binding panel, percent inhibition of specific binding
# T20 construct: gene CCKAR
# [25] = target: T21, GAL2 (Homo sapiens, UniProt O43603); test: biochemical; design: CEREP radioligand binding panel, percent inhibition of specific binding
# T21 construct: gene GALR2
# [26] = target: T22, MT1 (Homo sapiens, UniProt P48039); test: biochemical; design: CEREP radioligand binding panel, percent inhibition of specific binding
# T22 construct: gene MTNR1A
# T7 sequence (P41145 whole entry): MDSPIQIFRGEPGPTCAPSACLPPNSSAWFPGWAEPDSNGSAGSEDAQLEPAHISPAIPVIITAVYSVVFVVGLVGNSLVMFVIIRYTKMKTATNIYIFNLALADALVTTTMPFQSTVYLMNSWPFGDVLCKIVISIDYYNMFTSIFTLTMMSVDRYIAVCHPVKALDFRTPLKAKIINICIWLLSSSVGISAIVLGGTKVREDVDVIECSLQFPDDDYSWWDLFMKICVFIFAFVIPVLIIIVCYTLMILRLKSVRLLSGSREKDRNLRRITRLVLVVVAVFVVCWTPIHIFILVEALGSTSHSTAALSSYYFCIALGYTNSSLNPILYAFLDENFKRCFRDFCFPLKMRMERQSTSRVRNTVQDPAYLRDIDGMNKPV
# T15 sequence (P07550 whole entry): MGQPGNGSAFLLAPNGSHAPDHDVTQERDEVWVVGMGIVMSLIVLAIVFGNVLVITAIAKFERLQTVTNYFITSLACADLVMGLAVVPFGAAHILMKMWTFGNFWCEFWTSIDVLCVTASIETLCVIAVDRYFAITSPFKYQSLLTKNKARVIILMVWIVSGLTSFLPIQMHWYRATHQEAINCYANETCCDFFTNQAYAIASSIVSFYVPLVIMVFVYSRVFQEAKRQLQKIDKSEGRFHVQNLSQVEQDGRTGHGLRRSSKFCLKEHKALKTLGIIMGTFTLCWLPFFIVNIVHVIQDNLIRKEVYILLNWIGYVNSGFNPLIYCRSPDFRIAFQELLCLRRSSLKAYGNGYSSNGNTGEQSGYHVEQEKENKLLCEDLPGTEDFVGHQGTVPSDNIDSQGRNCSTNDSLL
# T9 sequence (P21452 whole entry): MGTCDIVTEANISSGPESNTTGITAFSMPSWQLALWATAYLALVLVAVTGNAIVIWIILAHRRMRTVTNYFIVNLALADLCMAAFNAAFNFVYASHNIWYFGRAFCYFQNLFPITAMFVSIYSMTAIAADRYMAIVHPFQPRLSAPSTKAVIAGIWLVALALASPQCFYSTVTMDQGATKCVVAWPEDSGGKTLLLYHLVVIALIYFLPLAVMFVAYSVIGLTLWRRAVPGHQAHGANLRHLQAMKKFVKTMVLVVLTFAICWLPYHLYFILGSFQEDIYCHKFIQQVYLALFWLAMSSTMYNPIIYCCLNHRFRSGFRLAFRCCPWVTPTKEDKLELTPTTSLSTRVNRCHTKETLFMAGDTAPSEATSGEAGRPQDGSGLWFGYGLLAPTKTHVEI
# T6 sequence (Q9Y5N1 whole entry): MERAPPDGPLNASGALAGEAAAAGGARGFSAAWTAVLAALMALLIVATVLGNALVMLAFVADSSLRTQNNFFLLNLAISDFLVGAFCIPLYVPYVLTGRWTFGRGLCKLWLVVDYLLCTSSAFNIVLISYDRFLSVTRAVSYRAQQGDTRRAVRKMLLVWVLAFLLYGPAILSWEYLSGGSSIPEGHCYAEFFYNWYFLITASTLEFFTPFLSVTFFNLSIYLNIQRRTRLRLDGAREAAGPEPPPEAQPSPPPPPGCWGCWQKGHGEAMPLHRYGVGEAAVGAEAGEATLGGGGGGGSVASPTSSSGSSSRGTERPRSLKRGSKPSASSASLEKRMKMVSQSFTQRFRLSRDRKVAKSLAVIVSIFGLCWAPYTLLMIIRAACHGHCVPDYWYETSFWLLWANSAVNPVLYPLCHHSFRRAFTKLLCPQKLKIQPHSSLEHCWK
# T14 sequence (P49146 whole entry): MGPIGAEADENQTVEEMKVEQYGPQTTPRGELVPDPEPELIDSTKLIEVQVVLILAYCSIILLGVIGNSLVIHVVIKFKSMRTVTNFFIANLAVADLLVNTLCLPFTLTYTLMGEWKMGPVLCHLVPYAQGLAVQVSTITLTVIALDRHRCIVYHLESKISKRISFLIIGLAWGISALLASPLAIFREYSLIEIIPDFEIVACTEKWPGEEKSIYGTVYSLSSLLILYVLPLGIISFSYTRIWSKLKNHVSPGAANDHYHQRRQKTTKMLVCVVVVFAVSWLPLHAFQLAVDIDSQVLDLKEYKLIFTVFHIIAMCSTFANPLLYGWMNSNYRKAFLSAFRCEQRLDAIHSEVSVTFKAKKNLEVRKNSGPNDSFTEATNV
# T5 sequence (P21728 whole entry): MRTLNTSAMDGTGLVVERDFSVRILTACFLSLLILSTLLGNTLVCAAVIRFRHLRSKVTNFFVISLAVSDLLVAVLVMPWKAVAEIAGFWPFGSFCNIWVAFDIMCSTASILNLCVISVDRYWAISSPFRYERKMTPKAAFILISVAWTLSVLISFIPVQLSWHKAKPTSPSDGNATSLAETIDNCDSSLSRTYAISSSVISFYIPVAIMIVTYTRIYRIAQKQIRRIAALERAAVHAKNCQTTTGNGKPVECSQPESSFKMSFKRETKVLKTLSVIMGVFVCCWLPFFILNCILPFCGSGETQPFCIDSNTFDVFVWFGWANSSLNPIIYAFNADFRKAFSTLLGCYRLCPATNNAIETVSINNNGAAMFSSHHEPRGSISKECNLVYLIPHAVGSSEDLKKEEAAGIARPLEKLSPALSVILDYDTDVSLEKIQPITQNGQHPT
# T13 sequence (P25929 whole entry): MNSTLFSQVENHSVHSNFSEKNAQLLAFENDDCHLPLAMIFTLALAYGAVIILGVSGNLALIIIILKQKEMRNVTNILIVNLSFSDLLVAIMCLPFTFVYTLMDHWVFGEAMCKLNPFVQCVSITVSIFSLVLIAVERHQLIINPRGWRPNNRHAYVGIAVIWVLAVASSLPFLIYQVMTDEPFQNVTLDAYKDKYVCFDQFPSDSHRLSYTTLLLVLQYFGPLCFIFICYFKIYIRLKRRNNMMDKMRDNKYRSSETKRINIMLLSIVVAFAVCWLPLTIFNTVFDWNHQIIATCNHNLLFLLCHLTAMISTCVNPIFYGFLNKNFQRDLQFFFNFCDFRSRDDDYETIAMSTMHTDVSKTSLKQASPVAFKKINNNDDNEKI
# CYP1A2, sequence (P05177 whole entry): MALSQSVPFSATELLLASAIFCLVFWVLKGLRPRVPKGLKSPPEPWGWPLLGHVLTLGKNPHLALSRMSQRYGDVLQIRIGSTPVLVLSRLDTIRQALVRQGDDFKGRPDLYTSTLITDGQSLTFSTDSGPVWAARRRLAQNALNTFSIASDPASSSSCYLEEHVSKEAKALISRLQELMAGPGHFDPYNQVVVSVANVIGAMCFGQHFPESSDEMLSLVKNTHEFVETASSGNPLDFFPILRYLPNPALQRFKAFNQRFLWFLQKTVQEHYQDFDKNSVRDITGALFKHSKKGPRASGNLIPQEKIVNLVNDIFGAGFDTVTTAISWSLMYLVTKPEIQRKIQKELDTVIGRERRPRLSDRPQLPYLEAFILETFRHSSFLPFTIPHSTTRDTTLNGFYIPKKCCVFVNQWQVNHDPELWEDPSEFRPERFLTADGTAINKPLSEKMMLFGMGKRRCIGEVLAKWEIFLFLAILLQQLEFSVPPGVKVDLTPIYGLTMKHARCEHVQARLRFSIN
# T2 sequence (P47898 whole entry): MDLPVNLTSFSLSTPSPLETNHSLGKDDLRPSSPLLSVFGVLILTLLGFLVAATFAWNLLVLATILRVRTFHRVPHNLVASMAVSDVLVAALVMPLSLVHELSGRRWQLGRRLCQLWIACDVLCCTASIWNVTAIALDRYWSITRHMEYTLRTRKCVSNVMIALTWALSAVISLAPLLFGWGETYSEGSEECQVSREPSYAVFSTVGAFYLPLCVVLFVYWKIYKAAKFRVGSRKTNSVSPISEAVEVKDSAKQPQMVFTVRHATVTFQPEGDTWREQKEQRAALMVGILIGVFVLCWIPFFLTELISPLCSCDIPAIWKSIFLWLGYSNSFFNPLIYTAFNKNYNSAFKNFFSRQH
# CYP2B6, sequence (P20813 whole entry): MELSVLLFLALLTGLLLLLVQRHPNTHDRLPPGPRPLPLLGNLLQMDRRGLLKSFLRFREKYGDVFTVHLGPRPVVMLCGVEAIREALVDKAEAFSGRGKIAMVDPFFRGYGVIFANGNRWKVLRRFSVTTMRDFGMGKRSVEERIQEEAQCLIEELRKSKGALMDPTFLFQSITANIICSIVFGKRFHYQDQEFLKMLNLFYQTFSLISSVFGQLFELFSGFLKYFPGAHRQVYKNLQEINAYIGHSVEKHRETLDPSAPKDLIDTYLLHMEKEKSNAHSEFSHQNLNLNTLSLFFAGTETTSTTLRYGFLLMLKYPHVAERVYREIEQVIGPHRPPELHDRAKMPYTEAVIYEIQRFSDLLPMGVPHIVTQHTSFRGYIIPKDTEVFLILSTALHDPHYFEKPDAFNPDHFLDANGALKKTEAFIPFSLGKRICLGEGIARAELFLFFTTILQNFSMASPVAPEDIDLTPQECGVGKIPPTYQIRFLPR
# T12 sequence (P37288 whole entry): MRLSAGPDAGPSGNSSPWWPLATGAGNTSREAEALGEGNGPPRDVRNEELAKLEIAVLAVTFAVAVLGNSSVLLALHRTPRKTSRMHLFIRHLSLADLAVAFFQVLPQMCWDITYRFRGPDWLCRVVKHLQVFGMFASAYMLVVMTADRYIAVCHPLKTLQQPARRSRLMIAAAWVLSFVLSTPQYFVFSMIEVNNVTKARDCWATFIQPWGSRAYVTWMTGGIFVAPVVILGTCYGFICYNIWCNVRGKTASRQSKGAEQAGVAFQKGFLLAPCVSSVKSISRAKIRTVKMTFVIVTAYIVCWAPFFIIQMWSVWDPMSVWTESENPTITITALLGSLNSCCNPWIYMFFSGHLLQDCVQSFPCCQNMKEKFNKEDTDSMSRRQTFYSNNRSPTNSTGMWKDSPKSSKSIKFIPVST
# T4 sequence (P0DMS8 whole entry): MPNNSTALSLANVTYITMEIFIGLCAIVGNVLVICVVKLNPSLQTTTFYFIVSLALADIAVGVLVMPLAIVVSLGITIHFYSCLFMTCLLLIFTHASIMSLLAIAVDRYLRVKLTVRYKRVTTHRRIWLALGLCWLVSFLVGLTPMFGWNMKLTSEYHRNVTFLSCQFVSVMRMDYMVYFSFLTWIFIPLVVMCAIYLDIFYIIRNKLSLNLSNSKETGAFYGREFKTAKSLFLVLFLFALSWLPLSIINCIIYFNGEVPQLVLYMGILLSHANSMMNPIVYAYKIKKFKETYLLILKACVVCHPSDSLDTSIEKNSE
Structure (SMILES),inhibition at 10 µM [1],inhibition at 10 µM [2],inhibition at 10 µM [3],inhibition at 10 µM [4],inhibition at 10 µM [5],inhibition at 10 µM [6],inhibition at 10 µM [7],inhibition at 10 µM [8],inhibition at 10 µM [9],inhibition at 10 µM [10],inhibition at 10 µM [11],inhibition at 10 µM [12],inhibition at 10 µM [13],inhibition at 10 µM [14],inhibition at 10 µM [15],inhibition at 10 µM [16],inhibition at 10 µM [17],inhibition at 10 µM [18],inhibition at 10 µM [19],inhibition at 10 µM [24],also measured
"O=C(c1cnc2c(-c3cnco3)cc(C(F)(F)F)cn12)N1C2CCC1COC2 [compound 1, (3-oxa-8-azabicyclo[3.2.1]octan-8-yl)(8-(oxazol-5-yl)-6-(trifluoromethyl)imidazo[1,2-a]pyridin-3-yl)methanone]",-8.4%,-12.5%,32%,23.3%,2.4%,-3.3%,8%,3.3%,-7.9%,4.1%,4.8%,-7.4%,-2.9%,-3.7%,-8.1%,1.2%,-14.5%,6.9%,2.1%,7.1%,IC50 [20]: 6.29 µM; IC50 [21]: > 50 µM; IC50 [22]: > 50 µM; IC50 [23]: > 50 µM; inhibition at 10 µM [25]: -7.2%; inhibition at 10 µM [26]: 1.7%
"O=C(c1cccnc1-c1ccncn1)N1CCC(O)(Cc2ccc(F)cc2)CC1 [compound 2, (4-(4-fluorobenzyl)-4-hydroxypiperidin-1-yl)(2-(pyrimidin-4-yl)pyridin-3-yl)methanone]",-13.3%,9.6%,12.2%,5.4%,-5.3%,-14.7%,-5.2%,-8.6%,-1.4%,1.1%,8.8%,2.8%,-16.3%,6.8%,-2%,0.1%,-3.6%,8.4%,13.8%,-4.7%,IC50 ([20]; read-out: compound 2): > 50 µM; IC50 ([21]; read-out: compound 2): > 50 µM; IC50 ([22]; read-out: compound 2): > 50 µM; IC50 ([23]; read-out: compound 2): > 50 µM; inhibition at 10 µM [25]: 0%; inhibition at 10 µM [26]: 8.3%

# — article PMC7658267, “Effects of CYP46A1 Inhibition on Long-Term-Depression in Hippocampal Slices ex vivo and 24S-Hydroxycholesterol Levels in Mice in vivo” (Frontiers in Molecular Neuroscience, 2020)
